Biological target: T1, PI3K delta (Homo sapiens, UniProt O00329)
T1 construct: myristylation signal (myr) (N); HA tag (N); expressed in transfected cells; host or cells: Rat1 cells, stably transfected
T1 sequence (O00329 1-1044): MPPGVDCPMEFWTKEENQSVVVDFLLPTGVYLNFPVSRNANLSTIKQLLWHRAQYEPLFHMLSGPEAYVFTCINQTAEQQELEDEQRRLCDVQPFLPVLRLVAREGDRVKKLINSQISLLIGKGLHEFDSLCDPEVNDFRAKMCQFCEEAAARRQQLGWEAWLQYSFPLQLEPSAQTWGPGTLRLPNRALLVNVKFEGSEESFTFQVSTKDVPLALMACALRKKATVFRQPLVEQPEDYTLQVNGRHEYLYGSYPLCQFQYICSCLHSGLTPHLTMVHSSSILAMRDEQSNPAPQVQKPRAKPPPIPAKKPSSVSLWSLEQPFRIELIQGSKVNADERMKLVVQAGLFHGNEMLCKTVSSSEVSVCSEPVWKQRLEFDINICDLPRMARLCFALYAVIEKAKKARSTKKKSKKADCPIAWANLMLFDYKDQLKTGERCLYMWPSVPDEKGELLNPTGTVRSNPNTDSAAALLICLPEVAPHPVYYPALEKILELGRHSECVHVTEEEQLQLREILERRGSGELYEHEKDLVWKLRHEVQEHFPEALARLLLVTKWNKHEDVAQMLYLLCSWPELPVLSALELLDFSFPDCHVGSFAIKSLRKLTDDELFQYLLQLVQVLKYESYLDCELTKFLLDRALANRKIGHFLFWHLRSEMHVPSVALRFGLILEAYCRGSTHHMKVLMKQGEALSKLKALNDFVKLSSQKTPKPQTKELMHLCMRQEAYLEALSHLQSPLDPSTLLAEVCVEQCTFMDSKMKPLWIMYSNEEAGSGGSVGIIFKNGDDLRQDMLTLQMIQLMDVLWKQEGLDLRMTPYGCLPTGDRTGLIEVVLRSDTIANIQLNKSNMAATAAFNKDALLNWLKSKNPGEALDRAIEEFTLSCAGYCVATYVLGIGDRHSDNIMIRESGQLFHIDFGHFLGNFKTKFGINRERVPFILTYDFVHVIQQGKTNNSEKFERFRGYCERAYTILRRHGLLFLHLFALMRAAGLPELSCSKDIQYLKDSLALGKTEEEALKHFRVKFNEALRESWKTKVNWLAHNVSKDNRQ
Assay: Cellular PI3K delta inhibition: PKB Ser473 phosphorylation in Rat1 cells expressing myr-HA-p110 delta
Assay type: cell-based, rat
Conditions: 1 h incubation, read-out: Cell PI3Kd/ IC50
Description: The compounds tested were prepared as 10 mM stock solutions in DMSO (Merck, #8.02912.2500). Test compounds were prepared in 384 well plates (Greiner PP-Microplate, #781201) in 3-fold serial dilutions in 90% DMSO (Merck, #8.02912.2500) with 8 concentrations starting at 2 mM. Test compounds were prediluted (1:400) in two subsequent 1:20 dilution steps (5 μl+95 μl) from the master plate into starving medium in 384 well plates using a MATRIX PlateMate 2×2 pipettor (384 well-head). 25 μl/well of this 1:400 dilution were then added to the cell culture plate.
The Rat1-myr-HA-p110 alpha, beta and delta cells were trypsinized and counted with a CASY TT cell counter (Schärfe System GmbH, Reutlingen Germany). Rat1 cells expressing myr-HA-p110 alpha, beta and delta were seeded in 384-well plates at 15,000 cells per well in 50 μl/well complete medium and incubated for 20 h at 37° C., 5% CO2 until the cell layers reached 80-90% confluency. […] in 384 well plates using a MATRIX PlateMate 2×2 pipettor (384 well-head). 25 μl/well of this 1:400 dilution were then added to the cell culture plate.
Untreated cells were used as low controls, cells stimulated in absence of compounds were used as high controls. After an incubation of 1 h with compounds, cells were lysed by addition of 15 μl 3× lysis buffer (provided as 5× solution with the SureFire kit) enriched with 0.72% BSA, yielding a total volume of 45 μl cell lysate per well. Cell lysates were either used immediately of stored frozen (in sealed plates) at −20° C. until use. 5 μl of each lysate were transferred to Proxy-plates and mixed with Surefire beads, reaction buffer (containing the appropriate antibodies), activation buffer and dilution buffer according to the instructions of the supplier, yielding a total volume of 12 μl per well (the total final BSA conc. in the assay was 0.1%). After 2 h incubation (with shaking) in the dark at RT, light emission was measured using the EnVision Reader (Perkin Elmer). The difference between high and low controls was taken as 100% and compound effects were expressed as percent inhibition. IC50 values were determined from the dose response curves by graphical extrapolation.

Row | IC50 | SMILES
1 | 32.3 nM | COc1ccc(-c2ccc3ncnc(-c4cccc(C(=O)N5C[C@@H]6C[C@H]5CN6C)c4)c3c2)cn1 [Example 91, {3-[6-(6-Methoxy-pyridin-3-yl)-quinazolin-4-yl]-phenyl}-((1S,4S)-5-methyl-2,5-diaza-bicyclo[2.2.1]hept-2-yl)-methanone]
2 | 27.5 nM | COc1ncc(-c2ccc3ncnc(-c4cccc(C(=O)N5CCN(C)CC5)c4)c3c2)cn1 [Example 2]
3 | 14 nM | CNc1ncc(-c2ccc3ncnc(-c4cncc(C(=O)N5CCN(C)CC5)c4)c3c2)cc1C [Example 75, {5-[6-(5-Methyl-6-methylamino-pyridin-3-yl)-quinazolin-4-yl]-pyridin-3-yl}-(4-methyl-piperazin-1-yl)-methanone]
4 | 19.5 nM | COc1ccc(-c2ccc3ncnc(-c4cncc(C(=O)N5CCNC(C)(C)C5)c4)c3c2)cc1C(F)(F)F [Example 81, (3,3-Dimethyl-piperazin-1-yl)-{5-[6-(4-methoxy-3-trifluoromethyl-phenyl)-quinazolin-4-yl]-pyridin-3-yl}-methanone]
5 | 103 nM | COc1ccc(-c2ccc3ncnc(-c4cc(F)cc(C(=O)N5CCN(C(C)=O)CC5)c4)c3c2)cn1 [Example 110, 1-(4-{3-Fluoro-5-[6-(6-methoxy-pyridin-3-yl)-quinazolin-4-yl]-benzoyl}-piperazin-1-yl)-ethanone]
6 | 43 nM | COc1ccc(-c2ccc3ncnc(-c4ccc(C)c(C(=O)N5CC6CC5CN6C)c4)c3c2)cn1 (stereo not shown) [Example 117]
7 | 83 nM | COc1ccc(-c2ccc3ncnc(-c4cccc(C(=O)N5CCN(C(C)=O)CC5)c4)c3c2)cc1S(=O)(=O)N1CCCC1 [Example 7]
